These results are taken from ChEMBL document CHEMBL1121433, “New cyclopenta[a]naphthalene derivatives. Synthesis of 2-(carbamylmethyl)-8-hydroxy-3H-cyclopental[a]naphthalene as a possible deoxyribonucleic acid binding agent” (1980).

In one assay the test system is CCRF-CEM. In words: Tested for inhibition of compound against growth of CCRF-CEM cells at 1.0E-4 M. It is filed as functional, Homo sapiens.
The subject of another assay is L1210. In words: Tested for inhibition of compound against growth of L1210 cells at 3.2E-5 M. It is filed as functional, Mus musculus.

By Inhibition is commonly meant how much of the control response was suppressed. Low readings indicate a response near the control, high ones a response far below the control.

`NC(=O)CC1=Cc2c(ccc3ccc(O)cc23)C1`: the Inhibition in the assay with CCRF-CEM and with L1210 was 25% in each case.
